According to patent US12139492B2 (Endotarget Inc., priority 2021, dated 2024):

Assays:
Assay type in all cases: cell-based
JeKo-1 cells = test: Antiproliferative effect, MTS cell viability assay, JeKo-1 cells; conditions: Homo sapiens; JeKo-1 mantle cell lymphoma cells; read-out: IC50 (anti-proliferation) JeKO-1 cells
How it was run: (§1)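 MTS read-out, A490 of formazan from metabolically active cells; compound 0–10 μM (0, 0.001, 0.01, 0.1, 1, 10 μM), 72 h exposure.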

BTK = BTK (Homo sapiens, UniProt Q06187); test: BTK degradation, DC50 and Dmax of Table 1 (cell line not given); parameters: endogenous in cells; conditions: for DC50: concentration giving 50% reduction of BTK expression level
Mino cells = test: Antiproliferative effect, MTS cell viability assay, Mino cells; conditions: Homo sapiens, MINO, Mino mantle cell lymphoma cells; read-out: IC50 (anti-proliferation) Mino cells
How it was run: as §1

Chain of BTK (Q06187 whole entry): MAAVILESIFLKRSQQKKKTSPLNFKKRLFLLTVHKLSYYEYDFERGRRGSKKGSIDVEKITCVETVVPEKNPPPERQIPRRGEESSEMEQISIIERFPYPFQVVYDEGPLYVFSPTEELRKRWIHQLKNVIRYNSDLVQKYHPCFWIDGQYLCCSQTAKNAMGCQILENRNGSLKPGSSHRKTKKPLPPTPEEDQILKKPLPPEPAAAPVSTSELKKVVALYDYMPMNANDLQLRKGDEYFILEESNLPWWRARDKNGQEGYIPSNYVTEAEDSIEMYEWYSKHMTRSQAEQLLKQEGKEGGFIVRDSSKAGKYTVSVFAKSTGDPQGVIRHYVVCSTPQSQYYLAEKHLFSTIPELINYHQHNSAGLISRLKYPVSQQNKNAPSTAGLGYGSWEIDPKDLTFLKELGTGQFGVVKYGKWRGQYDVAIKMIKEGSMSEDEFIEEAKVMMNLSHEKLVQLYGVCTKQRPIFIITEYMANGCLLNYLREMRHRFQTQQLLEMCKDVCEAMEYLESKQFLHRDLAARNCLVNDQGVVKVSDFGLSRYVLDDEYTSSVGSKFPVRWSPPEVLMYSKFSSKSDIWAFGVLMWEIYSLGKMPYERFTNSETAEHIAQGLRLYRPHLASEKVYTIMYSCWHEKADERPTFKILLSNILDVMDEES

| SMILES | IC50 (JeKo-1 cells) | Dmax (BTK) | DC50 (BTK) | IC50 (Mino cells) |
| --- | --- | --- | --- | --- |
| Nc1ncnc2c1c(-c1ccc(Oc3ccccc3)cc1)nn2[C@@H]1CCCN(C2CCN(CCN3CCN(c4ccc5c(c4)C(=O)N(C4CCC(=O)NC4=O)C5=O)CC3)CC2)C1 (stereo partly drawn) [Compound 147, 5-(4-(2-((R)-3-(4-amino-3-(4-phenoxyphenyl)-1H-pyrazolo[3,4-d]pyrimidin-1-yl)-[1,4′-bipiperidin]-1′-yl)ethyl)piperazin-1-yl)-2-(2,6-dioxopiperidin-3-yl)isoindoline-1,3-dione] | > 10000 nM | > 75% | 10 to 50 nM | > 10000 nM |
| Nc1ncnc2c1c(-c1ccc(Oc3ccccc3)cc1)nn2[C@@H]1CCCN(C(=O)N2CCC(CC3CCN(c4ccc5c(c4)CN(C4CCC(=O)NC4=O)C5=O)CC3)CC2)C1 (stereo partly drawn) [Compound 60, 3-(5-(4-((1-((R)-3-(4-amino-3-(4-phenoxyphenyl)-1H-pyrazolo[3,4-d]pyrimidin-1-yl)piperidine-1-carbonyl)piperidin-4-yl)methyl)piperidin-1-yl)-1-oxoisoindolin-2-yl)piperidine-2,6-dione] | < 1000 nM | > 90% | < 10 nM | < 1000 nM |
| Nc1ncnc2c1c(-c1ccc(Oc3ccccc3)cc1)nn2C1CCN(C(=O)N2CCN(CC3CCN(c4ccc5c(c4)C(=O)N(C4CCC(=O)NC4=O)C5=O)CC3)CC2)CC1 (centres unmarked) [Compound 87, 5-(4-((4-(4-(4-amino-3-(4-phenoxyphenyl)-1H-pyrazolo[3,4-d]pyrimidin-1-yl)piperidine-1-carbonyl)piperazin-1-yl)methyl)piperidin-1-yl)-2-(2,6-dioxopiperidin-3-yl)isoindoline-1,3-dione] | < 1000 nM | > 90% | 10 to 50 nM | 1000 to 10000 nM |
| Nc1ncnc2c1c(-c1ccc(Oc3ccccc3)cc1)nn2C1CCN(C(=O)N2CCC(CCN3CCN(c4ccc5c(c4)CN(C4CCC(=O)NC4=O)C5=O)CC3)CC2)CC1 (centres unmarked) [Compound 94, 3-(5-(4-(2-(1-(4-(4-amino-3-(4-phenoxyphenyl)-1H-pyrazolo[3,4-d]pyrimidin-1-yl)piperidine-1-carbonyl)piperidin-4-yl)ethyl)piperazin-1-yl)-1-oxoisoindolin-2-yl)piperidine-2,6-dione] | 1000 to 10000 nM | > 90% | 10 to 50 nM | < 1000 nM |
| Nc1ncnc2c1c(-c1ccc(Oc3ccccc3)cc1)nn2[C@@H]1CCCN(C2CCN(C(=O)N3CCC(c4ccc5c(c4)C(=O)N(C4CCC(=O)NC4=O)C5=O)CC3)CC2)C1 (stereo partly drawn) [Compound 157, 5-(1-((R)-3-(4-amino-3-(4-phenoxyphenyl)-1H-pyrazolo[3,4-d]pyrimidin-1-yl)-[1,4′-bipiperidine]-1′-carbonyl)piperidin-4-yl)-2-(2,6-dioxopiperidin-3-yl)isoindoline-1,3-dione] | > 10000 nM | > 50% | > 50 nM | > 10000 nM |
| Nc1ncnc2c1c(-c1ccc(Oc3ccccc3)cc1)nn2[C@@H]1CCCN(C(=O)N2CCC(CCC3CCN(c4ccc5c(c4)CN(C4CCC(=O)NC4=O)C5=O)CC3)CC2)C1 (stereo partly drawn) [Compound 72, 3-(5-(4-(2-(1-((R)-3-(4-amino-3-(4-phenoxyphenyl)-1H-pyrazolo[3,4-d]pyrimidin-1-yl)piperidine-1-carbonyl)piperidin-4-yl)ethyl)piperidin-1-yl)-1-oxoisoindolin-2-yl)piperidine-2,6-dione] | 1000 to 10000 nM | > 90% | < 10 nM | 1000 to 10000 nM |
| Nc1ncnc2c1c(-c1ccc(Oc3ccccc3)cc1)nn2C1CCN(C(=O)N2CCC(N3CCN(c4ccc5c(c4)CN(C4CCC(=O)NC4=O)C5=O)CC3)CC2)CC1 (centres unmarked) [Compound 82, 3-(5-(4-(1-(4-(4-amino-3-(4-phenoxyphenyl)-1H-pyrazolo(3,4-d)pyrimidin-1-yl)piperidine-1-carbonyl)piperidin-4-yl)piperazin-1-yl)-1-oxoisoindolin-2-yl)piperidine-2,6-dione] | > 10000 nM | > 75% | 10 to 50 nM | > 10000 nM |
| Nc1ncnc2c1c(-c1ccc(Oc3ccccc3)cc1)nn2[C@@H]1CCCN(C(=O)N2CCC(CCN3CCC(c4ccc5c(c4)CN(C4CCC(=O)NC4=O)C5=O)CC3)CC2)C1 (stereo partly drawn) [Compound 74, 3-(5-(1-(2-(1-((R)-3-(4-amino-3-(4-phenoxyphenyl)-1H-pyrazolo[3,4-d]pyrimidin-1-yl)piperidine-1-carbonyl)piperidin-4-yl)ethyl)piperidin-4-yl)-1-oxoisoindolin-2-yl)piperidine-2,6-dione] | > 10000 nM | > 90% | 10 to 50 nM | > 10000 nM |
| Nc1ncnc2c1c(-c1ccc(Oc3ccccc3)cc1)nn2[C@@H]1CCCN(C2CCN(CCCN3CCC(c4ccc5c(c4)C(=O)N(C4CCC(=O)NC4=O)C5=O)CC3)CC2)C1 (stereo partly drawn) [Compound 153, 5-(1-(3-((R)-3-(4-amino-3-(4-phenoxyphenyl)-1H-pyrazolo[3,4-d]pyrimidin-1-yl)-[1,4′-bipiperidin]-1′-yl)propyl)piperidin-4-yl)-2-(2,6-dioxopiperidin-3-yl)isoindoline-1,3-dione] | > 10000 nM | > 75% | > 50 nM | > 10000 nM |
| Nc1ncnc2c1c(-c1ccc(Oc3ccccc3)cc1)nn2[C@@H]1CCCN(C2CCN(C(=O)N3CCC(CCN4CCC(c5ccc6c(c5)CN(C5CCC(=O)NC5=O)C6=O)CC4)CC3)CC2)C1 (stereo partly drawn) [Compound 184, 3-(5-(1-(2-(1-((R)-3-(4-amino-3-(4-phenoxyphenyl)-1H-pyrazolo[3,4-d]pyrimidin-1-yl)-[1,4′-bipiperidine]-1′-carbonyl)piperidin-4-yl)ethyl)piperidin-4-yl)-1-oxoisoindolin-2-yl)piperidine-2,6-dione] | 1000 to 10000 nM | > 90% | 10 to 50 nM | 1000 to 10000 nM |
| Nc1ncnc2c1c(-c1ccc(Oc3ccccc3)cc1)nn2[C@@H]1CCCN(C2CCN(C(=O)N3CCN(CCCN4CCN(c5ccc6c(c5)CN(C5CCC(=O)NC5=O)C6=O)CC4)CC3)CC2)C1 (stereo partly drawn) [Compound 188, 3-(5-(4-(3-(4-((R)-3-(4-amino-3-(4-phenoxyphenyl)-1H-pyrazolo[3,4-d]pyrimidin-1-yl)-[1,4′-bipiperidine]-1′-carbonyl)piperazin-1-yl)propyl)piperazin-1-yl)-1-oxoisoindolin-2-yl)piperidine-2,6-dione] | 1000 to 10000 nM | > 75% | > 50 nM | 1000 to 10000 nM |
| Nc1ncnc2c1c(-c1ccc(Oc3ccccc3)cc1)nn2[C@@H]1CCCN(C2CCN(CCN3CCN(c4ccc5c(c4)CN(C4CCC(=O)NC4=O)C5=O)CC3)CC2)C1 (stereo partly drawn) [Compound 148, 3-(5-(4-(2-((R)-3-(4-amino-3-(4-phenoxyphenyl)-1H-pyrazolo[3,4-d]pyrimidin-1-yl)-[1,4′-bipiperidin]-1′-yl)ethyl)piperazin-1-yl)-1-oxoisoindolin-2-yl)piperidine-2,6-dione] | > 10000 nM | > 75% | 10 to 50 nM | 1000 to 10000 nM |
| Nc1ncnc2c1c(-c1ccc(Oc3ccccc3)cc1)nn2[C@@H]1CCCN(CC2CCN(C(=O)N3CCN(c4ccc5c(c4)CN(C4CCC(=O)NC4=O)C5=O)CC3)CC2)C1 (stereo partly drawn) [Compound 26, 3-(5-(4-(4-(((R)-3-(4-amino-3-(4-phenoxyphenyl)-1H-pyrazolo[3,4-d]pyrimidin-1-yl)piperidin-1-yl)methyl)piperidine-1-carbonyl)piperazin-1-yl)-1-oxoisoindolin-2-yl)piperidine-2,6-dione] | 1000 to 10000 nM | > 75% | > 50 nM | 1000 to 10000 nM |
| Nc1ncnc2c1c(-c1ccc(Oc3ccccc3)cc1)nn2C1CCN(C(=O)N2CCC(CN3CCC(c4ccc5c(c4)C(=O)N(C4CCC(=O)NC4=O)C5=O)CC3)CC2)CC1 (centres unmarked) [Compound 91, 5-(1-((1-(4-(4-amino-3-(4-phenoxyphenyl)-1H-pyrazolo[3,4-d]pyrimidin-1-yl)piperidine-1-carbonyl)piperidin-4-yl)methyl)piperidin-4-yl)-2-(2,6-dioxopiperidin-3-yl)isoindoline-1,3-dione] | 1000 to 10000 nM | > 90% | < 10 nM | 1000 to 10000 nM |
| Nc1ncnc2c1c(-c1ccc(Oc3ccccc3)cc1)nn2C1CCN(CC2CCN(C(=O)N3CCC(CN4CCN(c5ccc6c(c5)CN(C5CCC(=O)NC5=O)C6=O)CC4)CC3)CC2)CC1 (centres unmarked) [Compound 42, 3-(5-(4-((1-(4-((4-(4-amino-3-(4-phenoxyphenyl)-1H-pyrazolo[3,4-d]pyrimidin-1-yl)piperidin-1-yl)methyl)piperidine-1-carbonyl)piperidin-4-yl)methyl)piperazin-1-yl)-1-oxoisoindolin-2-yl)piperidine-2,6 dione] | < 1000 nM | > 90% | 10 to 50 nM | < 1000 nM |
| Nc1ncnc2c1c(-c1ccc(Oc3ccccc3)cc1)nn2[C@@H]1CCCN(C2CCN(C(=O)N3CCC(c4ccc5c(c4)CN(C4CCC(=O)NC4=O)C5=O)CC3)CC2)C1 (stereo partly drawn) [Compound 158, 3-(5-(1-((R)-3-(4-amino-3-(4-phenoxyphenyl)-1H-pyrazolo[3,4-d]pyrimidin-1-yl)-[1,4′-bipiperidine]-1′-carbonyl)piperidin-4-yl)-1-oxoisoindolin-2-yl)piperidine-2,6-dione] | > 10000 nM | > 50% | > 50 nM | > 10000 nM |
| Nc1ncnc2c1c(-c1ccc(Oc3ccccc3)cc1)nn2C1CCN(C(=O)N2CCN(c3ccc4c(c3)CN(C3CCC(=O)NC3=O)C4=O)CC2)CC1 (centres unmarked) [Compound 76, 3-(5-(4-(4-(4-amino-3-(4-phenoxyphenyl)-1H-pyrazolo[3,4-d]pyrimidin-1-yl)piperidine-1-carbonyl)piperazin-1-yl)-1-oxoisoindolin-2-yl)piperidine-2,6-dione] | > 10000 nM | > 50% | > 50 nM | > 10000 nM |
